The text below walks through data of patent publication US5814646A, “Inhibitors of amyloid beta-protein production” (Eli Lilly and Company, priority 1995, dated 1998).

This assay has as its system Aβ production in 293 751 SWE and CHO 751 SWE cells (transfected with APP-751 Swedish mutation). Nature of the assay: Aβ production inhibition activity in cells (Aβ ELISA of conditioned media, normalized for cytotoxicity by MTT). Particulars: for IC50: 2 h pretreatment + 2 h incubation; for inhibition at 10 µg/mL: 10 μg/ml, % of drug-free control, normalized to MTT; for inhibition at 5 µg/mL: 5 μg/ml. The class given is cell-based. On the procedure:
Two cell lines (human kidney cell line 293 and Chinese hamster ovary cell line CHO) were stably transfected with the gene for APP-751 containing the double mutation Lys651 -Met652 to Asn651 -Leu652 (APP-751 numbering) commonly called the Swedish mutation using the method described in Citron et al., (1992) Nature 360:672-674. The transfected cell lines were designated as 293 751 SWE and CHO 751 SWE, and were plated in Corning 96 well plates at 2.5×10^4 or 1×10^4 cells per well respectively in Dulbecco's minimal essential media plus 10% fetal bovine serum. Following overnight incubation at 37° C. in an incubator equilibrated with 10% carbon dioxide (CO2), the media were removed and replaced with 200 μL per well of media containing a test compound. After a two hour pretreatment period, the media were again removed and replaced with fresh media containing the test compound and the cells were incubated for an additional two hours.
Test compound stocks were prepared in DMSO such that at the final concentration used in the treatment, the concentration of DMSO did no exceed 0.5%. After treatment, plates were centrifuged in a Beckman GPR at 1200 rpm for five minutes at room temperature to pellet cellular debris from the conditioned media. From each well, 100 μL of conditioned media were transferred into an ELISA plate precoated with antibody 266 against βAP-13-28 (Seubert et al., supra.) and stored at 4° C. overnight. An ELISA assay employing labeled antibody 6C6 (against βAP-1-16) was run the next day to measure the amount of Aβ produced.
Cytotoxic effects of the test compounds were measured by a modification of the method of Hansen et al., (1989) J. Immun. Meth. 119:203-210. To the cells remaining in the tissue culture plate, was added 25 μL of a 3, (4,5-dimethylthiazol-2-yl)2,5-diphenyltetrazolium bromide (MTT) stock solution (5 mg/mL) to a final concentration of […]. Cells were incubated at 37° C. for one hour, and cellular activity was stopped by the addition of an equal volume of MTT lysis buffer (20% w/v sodium dodecylsulfate in 50% DMF, pH 4.7). Complete extraction was achieved by overnight shaking at room temperature. The difference in the OD562 nm and the OD650 nm was measured in a Molecular Devices UVmax microplate reader as an indicator of the cellular viability.
The results of the Aβ ELISA were fit to a standard curve and expressed as ng/mL Aβ peptide. In order to normalize for cytotoxicity, these Aβ results were divided by the MTT results and expressed as a percentage of the results from a drug -free control.
The test compounds were assayed for Aβ production inhibition activity in cells at […] using the test. The results presented in Table 1 are the mean and standard deviation of at least six replicate assays. IC50 means the concentration of test compound in micromoles/liter required to inhibit Aβ production by 50%.
For orientation: In an ELISA, binding on a coated surface is turned into a signal by an enzyme label.

Structures are written as SMILES.

On to `CC(c1cccc(Oc2ccc(C(C)(C)C)cc2)c1)N(O)C(=S)NCc1ccccc1` (stereo not shown) [Compound 1], for which the IC50 came out at 11.2 µM.
Molecule `CC(c1cccc(Oc2ccc(C(C)(C)C)cc2)c1)N(O)C(=S)NCc1ccc(Cl)c(Cl)c1` (stereo not shown) [Compound 2] showed an inhibition at 10 µg/mL of 77%.
Consider `CC(c1cccc(Oc2ccc(C(C)(C)C)cc2)c1)N(O)C(=S)NCc1ccc(Cl)cc1` (stereo not shown) [Compound 3], for which the IC50 worked out at 11.7 µM.
The same measure, in the same setting: with `CC(c1cccc(Oc2ccc(C(C)(C)C)cc2)c1)N(O)C(=S)NCc1ccc(F)cc1` (stereo not shown) [Compound 4] the figure was 11.1 µM; with `Cc1ccccc1CNC(=S)N(O)C(C)c1cccc(Oc2ccc(C(C)(C)C)cc2)c1` (stereo not shown) [Compound 5], 10.3 µM; with `Cc1cccc(CNC(=S)N(O)C(C)c2cccc(Oc3ccc(C(C)(C)C)cc3)c2)c1` (stereo not shown) [Compound 6], 11.1 µM.
For the molecule `Cc1ccc(CNC(=S)N(O)C(C)c2cccc(Oc3ccc(C(C)(C)C)cc3)c2)cc1` (stereo not shown) [Compound 7], the IC50 is 15.6 µM.
On to `Cc1ccc(CNC(=S)N(O)C(C)c2cccc(Oc3ccc(C(C)(C)C)cc3)c2)cc1Cl` (stereo not shown) [Compound 8], for which the IC50 is 9 µM.
Turning to `Cc1ccc(CNC(=S)N(O)C(C)c2cccc(Oc3ccc(C(C)(C)C)cc3)c2)cc1C` (stereo not shown) [Compound 9], at 10 µg/mL the inhibition was 62%.
On to `COc1ccc(CNC(=S)N(O)C(C)c2cccc(Oc3ccc(C(C)(C)C)cc3)c2)cc1` (stereo not shown) [Compound 10], for which the IC50 was over 20 µM.
Consider `COc1ccc(CNC(=S)N(O)C(C)c2cccc(Oc3ccc(C(C)(C)C)cc3)c2)cc1OC` (stereo not shown) [Compound 11], for which the inhibition at 10 µg/mL amounted to 31%.
With `CC(c1cccc(Oc2ccc(C(C)(C)C)cc2)c1)N(O)C(=S)Nc1cccc2ccccc12` (stereo not shown) [Compound 12], the IC50 is over 20 µM.
`CC(NC(=S)N(O)C(C)c1cccc(Oc2ccc(C(C)(C)C)cc2)c1)c1ccccc1` (stereo not shown) [Compound 13]: the inhibition at 10 µg/mL is 46%.
Molecule `CC(c1cccc(Oc2ccc(C(C)(C)C)cc2)c1)N(O)C(=S)NC(c1ccccc1)c1ccccc1` (stereo not shown) [Compound 14] showed an inhibition at 10 µg/mL of 44%.
Molecule `CC(c1cccc(Oc2ccc(C(C)(C)C)cc2)c1)N(O)C(=S)NCc1ccc2c(c1)OCO2` (stereo not shown) [Compound 15] had an inhibition at 10 µg/mL of 28%.
With `CC(c1cccc(Oc2ccc(C(C)(C)C)cc2)c1)N(O)C(=S)NCc1cccc(Cl)c1` (stereo not shown) [Compound 16], the IC50 turned out to be 12 µM.
Same read-out and setting: with `CC(c1cccc(Oc2ccc(C(C)(C)C)cc2)c1)N(O)C(=S)NCc1ccc(Cl)cc1Cl` (stereo not shown) [Compound 17] the figure was 5.7 µM; with `CC(c1cccc(Oc2ccc(C(C)(C)C)cc2)c1)N(O)C(=S)NCc1cccc(F)c1` (stereo not shown) [Compound 18], 18.3 µM.
Consider `CCCCCCNC(=S)N(O)C(C)c1cccc(Oc2ccc(C(C)(C)C)cc2)c1` (stereo not shown) [Compound 19], for which the IC50 turned out to be 11 µM.
As for `CCC(c1cccc(Oc2ccc(C(C)(C)C)cc2)c1)N(O)C(=S)NCc1ccccc1` (stereo not shown) [Compound 20], the IC50 stood at 3.6 µM.
For `CCC(c1cccc(Oc2ccc(C(C)(C)C)cc2)c1)N(O)C(=S)NCc1cccc(OC)c1` (stereo not shown) [Compound 21], the IC50 was 5.6 µM.
`CCC(c1cccc(Oc2ccc(C(C)(C)C)cc2)c1)N(O)C(=S)Nc1cccc(C(F)(F)F)c1Cl` (stereo not shown) [Compound 22] returned an inhibition at 10 µg/mL of 10%.
For `CCC(c1cccc(Oc2ccc(C(C)(C)C)cc2)c1)N(O)C(=S)Nc1ccc(Cl)c(C(F)(F)F)c1` (stereo not shown) [Compound 23], the IC50 was determined as 11 µM.
As to `CCCCCCNC(=S)N(O)C(CC)c1cccc(Oc2ccc(C(C)(C)C)cc2)c1` (stereo not shown) [Compound 24], the IC50 stood at 8.8 µM.
On the same count and under the same terms, with `CCCCOc1ccc(NC(=S)N(O)C(CC)c2cccc(Oc3ccc(C(C)(C)C)cc3)c2)cc1` (stereo not shown) [Compound 25] the figure was 16 µM.
On the same count and under the same terms, with `CC(C)(C)c1ccc(Oc2cccc(CN(O)C(=S)NCc3ccccc3)c2)cc1` [Compound 26] the figure was 3.4 µM; with `CCCCCCNC(=S)N(O)Cc1cccc(Oc2ccc(C(C)(C)C)cc2)c1` [Compound 27], 9.4 µM; with `CC(C)(C)c1ccc(Oc2cccc(CN(O)C(=S)NCc3ccc(Cl)c(Cl)c3)c2)cc1` [Compound 28], 4.2 µM.
As for `CCCC(c1cccc(Oc2ccc(C(C)(C)C)cc2)c1)N(O)C(=S)NCc1ccccc1` (stereo not shown) [Compound 29], the IC50 was found to be 7.5 µM.
On the same count and under the same terms, with `CCCC(c1cccc(Oc2ccc(C(C)(C)C)cc2)c1)N(O)C(=S)NCc1cccc(Cl)c1` (stereo not shown) [Compound 30] the figure was 9.1 µM.
Still for that read-out and setting: with `CCCC(c1cccc(Oc2ccc(C(C)(C)C)cc2)c1)N(O)C(=S)NCc1ccc(Cl)c(Cl)c1` (stereo not shown) [Compound 31] the figure was 10 µM.
The same measure, in the same setting: with `CCCC(c1cccc(Oc2ccc(C(C)(C)C)cc2)c1)N(O)C(=S)NCc1cccc(C)c1` (stereo not shown) [Compound 32] the figure was 9 µM.
In turn, `CC(C)(C)c1ccc(Oc2cccc(C(Cc3ccccc3)N(O)C(=S)NCc3ccccc3)c2)cc1` (stereo not shown) [Compound 33] showed an inhibition at 5 µg/mL of 16%.
`CCCCCCNC(=S)N(O)C(Cc1ccccc1)c1cccc(Oc2ccc(C(C)(C)C)cc2)c1` (stereo not shown) [Compound 34] yielded an inhibition at 5 µg/mL of 20%.
As to `CCCCCCC(c1cccc(Oc2ccc(C(C)(C)C)cc2)c1)N(O)C(=S)Nc1ccc(Cl)c(C(F)(F)F)c1` (stereo not shown) [Compound 35], the inhibition at 10 µg/mL was found to be 9%.
The same measure, in the same setting: with `CCCCCCC(c1cccc(Oc2ccc(C(C)(C)C)cc2)c1)N(O)C(=S)NCc1ccccc1` (stereo not shown) [Compound 36] the figure was 26%; with `CCCCCCNC(=S)N(O)C(CCCCCC)c1cccc(Oc2ccc(C(C)(C)C)cc2)c1` (stereo not shown) [Compound 37], 0%.
`CC(c1cccc(Oc2ccc(C(C)(C)C)cc2)c1)N(C(=S)NCc1ccccc1)N(C)C` (stereo not shown) [Compound 38] returned an inhibition at 10 µg/mL of 32%.
Regarding `CC(NC(=S)NCc1ccccc1)c1cccc(Oc2ccc(C(C)(C)C)cc2)c1` (stereo not shown) [Compound 39], the IC50 turned out to be 10.5 µM.
On the same count and under the same terms, the same measure for `CC(C)(C)c1ccc(Oc2cccc(CNC(=S)NCc3ccccc3)c2)cc1` [Compound 40]: 9.1 µM; for `CC(C)(C)c1ccc(Oc2cccc(CNC(=S)NCc3ccc(Cl)c(C(F)(F)F)c3)c2)cc1` [Compound 41]: 4 µM; for `CCCCCCNC(=S)NCc1cccc(Oc2ccc(C(C)(C)C)cc2)c1` [Compound 42]: 17.2 µM.
`CCCCCCNC(=S)N(Cc1cccc(Oc2ccc(C(C)(C)C)cc2)c1)OC` [Compound 43] gave an inhibition at 10 µg/mL of 16%.
Still for that read-out and setting: the same measure for `CN(Cc1cccc(Oc2ccc(C(C)(C)C)cc2)c1)C(=S)NCc1ccc(Cl)c(Cl)c1` [Compound 44]: 40%.
Regarding `CCCCc1ccc(Oc2cccc(C(C)N(O)C(=S)NCc3ccccc3)c2)cc1` (stereo not shown) [Compound 45], the IC50 was found to be 9.2 µM.
`CC(c1cccc(Oc2ccc(C(C)(C)C)cc2)c1)N(O)C(=O)NCc1ccccc1` (stereo not shown) [Compound 46] had an inhibition at 10 µg/mL of 68%.
Still for that read-out and setting: the same measure for `CC(NC(=S)NCc1ccccc1)c1cccc(Oc2ccccc2)c1` (stereo not shown) [Compound 47]: 8%.
`Cc1cccc(CNC(=S)N(O)Cc2cccc(OCc3ccc(C(C)(C)C)cc3)c2)c1` [Compound 48]: the inhibition at 5 µg/mL was 29%.
For the molecule `CC(C)(C)c1ccc(COc2cccc(CN(O)C(=S)NCc3ccccc3)c2)cc1` [Compound 49], the IC50 was determined as 6.7 µM.
Consider `CCCCCCNC(=S)N(O)Cc1cccc(OCc2ccc(C(C)(C)C)cc2)c1` [Compound 50], for which the inhibition at 5 µg/mL amounted to 25%.
Same read-out and setting: with `CC(C)(C)c1ccc(COc2cccc(CN(O)C(=S)NCc3ccc(Cl)c(Cl)c3)c2)cc1` [Compound 51] the figure was 38%; with `CC(C)(C)c1ccc(COc2ccc(CN(O)C(=S)NCc3ccccc3)cc2)cc1` [Compound 52], 22%; with `ON(Cc1ccc(OCc2ccc(Cl)c(Cl)c2)cc1)C(=S)NCc1ccccc1` [Compound 54], 25%.
For `CCCCCCNC(=S)N(O)Cc1ccc(OCc2ccc(Cl)c(Cl)c2)cc1` [Compound 55], the inhibition at 5 µg/mL was 37%.
For the molecule `ON(Cc1ccc(OCc2ccc(F)c(F)c2)cc1)C(=S)NCc1ccccc1` [Compound 56], at 5 µg/mL the inhibition was 28%.
The molecule `CCCCCCNC(=S)N(O)Cc1ccc(OCc2ccc(F)c(F)c2)cc1` [Compound 57] gave an inhibition at 5 µg/mL of 4%.
On the same count and under the same terms, the same measure for `Cc1ccc(C)c(COc2ccc(CN(O)C(=S)NCc3ccccc3)cc2)c1` [Compound 58]: 32%; for `COc1cc(COc2ccc(CN(O)C(=S)NCc3ccccc3)cc2)cc(OC)c1` [Compound 60]: 17%.

As usually defined, the IC50 is the concentration that gives 50% inhibition. For orientation: inhibition means how much of the control response was suppressed.
